The values that follow come from patent publication US8975280B2, “Deoxynojirimycin and D-arabinitol analogs and methods of using” (The Chancellor, Masters and Scholars of The University of …, priority 2006, dated 2015).

The target in the test is T1, α-glucosidase I (Rattus norvegicus, UniProt O88941).
T1 construct: Purified α-glucosidase I and II were purified from rat liver by known methods; from tissue; host or cells: rat liver
T1 sequence (O88941 1-834): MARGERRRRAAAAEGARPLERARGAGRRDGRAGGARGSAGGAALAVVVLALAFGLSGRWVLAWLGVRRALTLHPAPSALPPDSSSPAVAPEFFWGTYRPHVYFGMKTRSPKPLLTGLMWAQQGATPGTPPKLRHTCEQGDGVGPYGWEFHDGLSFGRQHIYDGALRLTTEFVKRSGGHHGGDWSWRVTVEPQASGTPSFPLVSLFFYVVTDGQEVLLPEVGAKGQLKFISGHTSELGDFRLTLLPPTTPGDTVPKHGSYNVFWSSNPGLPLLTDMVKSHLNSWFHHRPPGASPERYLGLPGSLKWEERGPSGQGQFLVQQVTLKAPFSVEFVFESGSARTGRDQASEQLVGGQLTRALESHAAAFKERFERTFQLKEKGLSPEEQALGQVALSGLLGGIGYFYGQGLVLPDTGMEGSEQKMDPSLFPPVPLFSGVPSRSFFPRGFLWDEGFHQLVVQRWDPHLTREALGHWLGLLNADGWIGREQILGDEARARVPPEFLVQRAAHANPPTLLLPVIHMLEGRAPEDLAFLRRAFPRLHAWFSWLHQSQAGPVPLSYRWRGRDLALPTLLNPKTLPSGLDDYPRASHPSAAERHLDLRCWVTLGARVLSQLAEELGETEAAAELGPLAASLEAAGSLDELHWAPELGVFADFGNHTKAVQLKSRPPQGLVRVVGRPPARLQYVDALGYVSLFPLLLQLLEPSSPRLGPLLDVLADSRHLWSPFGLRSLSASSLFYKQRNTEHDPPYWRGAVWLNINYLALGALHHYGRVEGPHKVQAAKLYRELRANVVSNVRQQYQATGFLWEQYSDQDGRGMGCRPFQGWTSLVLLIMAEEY
The test can be described thus: In vitro inhibition of purified α-glucosidase I, 2-AA-labeled FOS substrates, HPLC. It counts as biochemical. The method, then:
All chromatography was performed at 30° C. The first solvent, solvent A, was acetonitrile and the second solvent, solvent B, was Milli-Q water. […] Samples (<50 μl) were injected in Milli-Q water/acetonitrile (3/7, v/v). All chromatography was controlled, including data collection and processing, using Waters Empower software. Glucose units were determined, following comparison with a 2-AA-labeled glucose oligomer ladder (derived from a partial hydrolysate of dextran) external standard using Peak Time software (developed in-house).
Purified α-glucosidase I and II were purified from rat liver by known methods. […] 2-AA-labeled FOS were isolated and purified as substrates for either α-glucosidase I or II. Fluorescently-labeled substrates Glc1Man5GlcNAc1 (G1M5N), Glc2Man5GlcNAc1 (G2M5N), Glc3Man5GlcNAc1 (G3M5N) and Glc3Man9GlcNAc, (G3M9N2) were added to separate 1.5 ml centrifuge tubes with varying concentrations of imino sugar and dried under vacuum. […] Similarly, α-glucosidase II was incubated for 2 hours with G2M5N and 20 minutes with G1M5N. […] The reactions were stopped by the addition of 30 μl acetonitrile.

Setting [1] is: physiologically relevant substrates.

Broadly, the IC50 is the concentration that gives 50% inhibition. Higher therefore signals weaker potency. For the compound `[N-]=[N+]=Nc1ccc(NCCCCCCN2C[C@H](O)[C@@H](O)[C@H](O)[C@H]2CO)c([N+](=O)[O-])c1` [NAP-DNJ, N—(N′-{4′azido-2′-nitrophenyl)-6-aminohexyl)-deoxynojirimycin], under “heptamannose substrates”, the “more potent in inhibiting glucosidase I than glucosidase II (a)” value is given as “over 300 times” and the “more potent in inhibiting glucosidase I than glucosidase II (b)” value was “more than 500 times”. Besides, the “inhibition of α-glucosidase I improved in comparison to NB-DNJ” value (pentamannose substrate) was found to be 40 fold. Moreover, under “pentamannose substrates”, the “inhibition better for α-glucosidase I than α-glucosidase II (a)” value is listed as 20 times and the “inhibition better for α-glucosidase I than α-glucosidase II (b)” value worked out at 50 times. For the same compound, under setting [1], the “better at inhibiting glucosidase I than glucosidase II (a) and (b) activity” value is given as 300-500 times; the “better than NB-DNJ in inhibiting all triglucosylated structures” value is listed as 25-50 times. In addition, under “α-Glucosidase I Glc3Man5GlcNAc1 IC50, pentamannose substrate Glc3Man5GlcNAc1”, the 50% inhibitory concentration (IC50) turned out to be 17 ± 1 nM. For the setting “α-Glucosidase I Glc3Man7GlcNAc1 IC50, heptamannose substrate Glc3Man7GlcNAc1”, this compound showed a half-maximal inhibitory concentration (IC50) of 37 ± 1 nM. Moreover, 22 ± 2 nM corresponded to half-maximal inhibition (α-Glucosidase I Glc3Man9GlcNAc1 IC50, nonamannose substrate Glc3Man9GlcNAc1) (IC50).
